According to US8883077B2, “Disinfecting, nonbleaching N-halamine for use with contact lens” (Auburn University, priority 2010, dated 2014):
≈ marks a conversion by molar mass, not a printed value.

Key:
[1] = Solubility in water at 22° C.; type: physicochemical
Source text: Both of the N-chloramine compounds mentioned above are able to easily be synthesized using methods known to those of skill in the art. Aqueous solutions of the un-halogenated amine precursor for either compound may be simply exposed to a dilute aqueous solution of household bleach (e.g., sodium hypochlorite) or sodium chlorite or by bubbling in chlorine gas to form the N-chloramine. For example, compound 1 has been prepared by Worley, et al., by using chlorine gas to react with an aqueous alkaline solution of the precursor amine (see Tsao, et al., “Novel N-Halamine Disinfectant Compounds”, Biotechnol. Prog. 1991, 7, 60 or Worley, et al., U.S. Pat. No. 5,057,612). It can also be purchased commercially from the HaloSource Corporation in Bothell, Wash. The precursor 2,2,5,5-tetramethyl-4-imidazolidinone is able to be prepared according to the method outlined in Tsao, et al., “Novel N-Halamine Disinfectant Compounds”, Biotechnol. Prog. 1991, 7, 60 or Worley, et al., U.S. Pat. No. 5,057,612. Compound 2 is able to be prepared by reaction of commercial (Aldrich Chemical Company, Milwaukee, Wis.) 2,2,6,6-tetramethyl-4-piperidinol with dilute household bleach. […] Pure compounds 1 and 2 contain 20.1 and 18.5 percent by weight oxidative chlorine, respectively. Their solubilities in water at 22° C. are 1930 and 6815 mg/L, respectively. […]

[2] = tested on: Staphylococcus aureus (ATCC 25923); assay: Disinfection efficacy in aqueous solution (colony counts after thiosulfate quench); type: cell-based; conditions: 5 mg/L total chlorine (25 mg/L compound)
Description: The antimicrobial efficacy of compound 1 was evaluated against the pathogen Staphylococcus aureus (ATCC 25923) in aqueous solution at 22° C. and pH values of 4.5, 7.0, and 9.5. Solutions containing about 1×10^6 colony forming units (CFU) per mL final cell densities of bacteria were prepared and treated with compound 1 at a concentration of 5 mg/L total chlorine concentration (25 mg/L compound concentration). Aliquots were removed at predetermined contact times and quenched with sterile 0.02 N sodium thiosulfate to terminate disinfection action. Then serial dilutions were made into sterile saline solution, and 25 μL aliquots of each dilution were applied to the dried surface of a Petri dish containing tryptic soy agar. After 48 hours of incubation at 37° C., colony counts for each dilution were made. The results of three replicates were averaged. Control samples containing no disinfectant were handled in the same manner. Inactivation of the pathogen was considered to be at least 99.9999% (6 logs) when no viable colonies were detected in the thiosulfate-quenched aliquots.

[3] = Stability in aqueous solution and in Unisol 4 contact lens soak (iodometric/thiosulfate titration); type: physicochemical
Description: The stabilities of compound 1 in aqueous solution and in a contact lens soak formulation (Unisol 4 manufactured by Alcon Laboratories, Inc.) were determined at 22° C. by using the standard iodometric/thiosulfate titration procedure. In water buffered to pH 7.0 at 22° C., the compound at a starting concentration of 10 mg/L total chlorine lost less than 5% of its oxidative chlorine over a storage period of 50 days. In about 4 mL of Unisol 4 at a starting concentration of about 20 mg/L total chlorine in the presence of an ACUVUE 2 contact lens (manufactured by Johnson & Johnson Vision Care, Inc.) in a lens holder manufactured by Alcon Laboratories, Inc., the loss of oxidative chlorine over 60 days was about 21%. In contrast, in an analogous experiment with compound 2 in the Unisol 4, the loss was about 54% over just 30 days.

SMILES	solubility [1]	contact time required for 99.9999% inactivation ([2]; pH 4.5, 22° C.)	inactivation after 10 minutes contact ([2]; pH 4.5, 22° C., about 1×10^6 CFU/mL)	contact time required for 99.9999% inactivation ([2]; pH 7.0, 22° C.)	inactivation after 10 minutes contact time ([2]; pH 7.0, 22° C., about 1×10^6 CFU/mL)	contact time required for 99.9999% inactivation ([2]; pH 9.5, 22° C.)	inactivation after 10 minutes contact time ([2]; pH 9.5, 22° C., about 1×10^6 CFU/mL)	loss of oxidative chlorine ([3]; about 4 mL Unisol 4 with ACUVUE 2 contact lens, starting about 20 mg/L total chlorine, 60 days)	loss of oxidative chlorine ([3]; water buffered to pH 7.0, 22° C., starting 10 mg/L total chlorine, storage 50 days)	loss of oxidative chlorine ([3]; Unisol 4 with ACUVUE 2 contact lens, analogous experiment, 30 days)
CC1(C)NC(=O)C(C)(C)N1Cl [compound 1, 1-chloro-2,2,5,5-tetramethyl-4-imidazolidinone]	1930 µg/mL (≈ 10.9 mM)	60 min	96%	588 min	4.4%	454 min	50%	about 21%	less than 5%	
CC1(C)CC(O)CC(C)(C)N1Cl [compound 2, 1-chloro-2,2,6,6-tetramethyl-4-piperidinol, reference compound]	6820 µg/mL (≈ 35.5 mM)									about 54%
